Legend:
[1] = Drug accumulation of the compound in human MCF7 cells assessed as accumulation at lysosome by fluorescence microscopy; format: ADME, subcellular
[2] = Drug accumulation of the compound in human MCF7 cells assessed as accumulation at mitochondria by fluorescence microscopy; format: ADME
[3] = Drug accumulation of the compound in human MCF7 cells assessed as accumulation at 4 degC by fluorescence microscopy; format: ADME, cell-based
[4] = Drug uptake in human MCF7 cells assessed as increase in internalization by measuring fold increase of fluorescence intensity in the presence of LDL by fluorescence spectrum analysis; format: ADME, cell-based

| Drug uptake [1] | Drug uptake [2] | Drug uptake [3] | fold change (FC) [4] | SMILES |
| --- | --- | --- | --- | --- |
| Active | Active | 3.7 10^-2microM | 6 | O=C(Nc1ccc(-c2c3nc(c(-c4ccccc4)c4ccc([nH]4)c(-c4ccccc4)c4nc(c(-c5ccccc5)c5ccc2[nH]5)C=C4)C=C3)cc1)c1ccccc1 |
| Active | Active | 7.5 10^-2microM | 12 | O=C(NC1=Cc2nc1c(-c1ccccc1)c1ccc([nH]1)c(-c1ccccc1)c1nc(c(-c3ccccc3)c3ccc([nH]3)c2-c2ccccc2)C=C1)c1ccccc1 |

From ChEMBL document CHEMBL5365449, “Permeation behavior of porphyrin derivatives with different functional group positions across cancer cell membranes” (Bioorg Med Chem Lett, 2023)
